From patent publication US20020183249A1, “Method of identifying inhibitors of CDC25” (priority 1999, published 2002)
pIC50: −log10 of the molar value. Read-outs that look alike come from different tables or passages of the source. Non-standard residues stand in square brackets, D forms with d. Residues, ends and D or L forms follow the SMILES beside them. *: point of attachment. Phe(4-CH2SO3H) = N[C@@H](Cc1ccc(CS(=O)(=O)O)cc1)C(=O)O; Bta = N[C@@H](Cc1csc2ccccc12)C(=O)O; Aad = N[C@@H](CCCC(=O)O)C(=O)O; X1 = CCOc1ccc2ccccc2c1C(=O)*; X2 = COc1ccc2ccccc2c1C(=O)*; αMeP = C[C@@]1(C(=O)O)CCCN1; Nle = CCCC[C@H](N)C(=O)O; Nva = CCC[C@H](N)C(=O)O; NHtBu = CC(C)(C)N*; OtBu = CC(C)(C)O*

How the values were obtained:
Cdc25A = target: T1, Cdc25A (Homo sapiens, UniProt P30304); test: Inhibition of Cdc25A enzymatic activity (IC50); type: biochemical
T1 sequence (P30304 1-524): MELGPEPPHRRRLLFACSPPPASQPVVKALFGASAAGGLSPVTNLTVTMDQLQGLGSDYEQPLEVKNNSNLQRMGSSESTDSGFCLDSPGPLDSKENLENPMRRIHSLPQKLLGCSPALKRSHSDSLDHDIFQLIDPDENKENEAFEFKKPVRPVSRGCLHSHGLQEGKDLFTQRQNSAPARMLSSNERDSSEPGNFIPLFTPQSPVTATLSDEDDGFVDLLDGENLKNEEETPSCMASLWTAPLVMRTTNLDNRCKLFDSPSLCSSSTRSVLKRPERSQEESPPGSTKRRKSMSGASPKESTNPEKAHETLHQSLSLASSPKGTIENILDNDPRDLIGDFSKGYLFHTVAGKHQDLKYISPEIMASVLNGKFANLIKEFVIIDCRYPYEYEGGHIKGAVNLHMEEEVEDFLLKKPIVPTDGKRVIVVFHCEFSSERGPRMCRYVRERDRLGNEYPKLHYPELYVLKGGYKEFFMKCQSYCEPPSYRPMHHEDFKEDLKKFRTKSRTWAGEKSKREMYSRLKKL
Excerpt: A compound which is identified by one of the foregoing methods as a potential inhibitor of Cdc25 can then be obtained, for example, by synthesis or from a compound library, and assessed for the ability to inhibit Cdc25 in vitro. Such an in vitro assay can be performed as is known in the art, for example, by contacting Cdc25 in solution with the test compound in the presence of a substrate for Cdc25. The rate of substrate transformation can be determined in the presence of the test compound and compared with the rate in the absence of the test compound. Suitable assays for Cdc25 biological activity are described in U.S. Pat. Nos. 5,861,249; 5,695,950; 5,443,962; and 5,294,538, the teachings of each of which are hereby incorporated by reference herein in their entirety.

Cdc25A (human) = test: cell-based or functional assay

Row | Compound | pIC50 (Cdc25A) | IC50 (Cdc25A (human)) | also measured
1 | CCOc1ccc2ccccc2c1C(=O)N[C@@H](Cc1ccc(CS(=O)(=O)O)cc1)C(=O)N[C@@H](CCC(=O)O)C(=O)N1CCC[C@H]1C(=O)N[C@@H](Cc1csc2ccccc12)C(=O)N[C@@H](CCCC(=O)O)C(=O)NC(C)(C)C [cdc1763] (X1-[Phe(4-CH2SO3H)]EP[Bta][Aad]-NHtBu) | 5.66 | – | increase in potency compared to cdc1671 (Cdc25A; Cdc25A IC50 relative to cdc1671): two-fold
2 | 2-EtO-naphthyl-1-CO-Smp-Glu(tBu)-Pro-Bta-Aad-NHtBu (peptide) | – | 1100 nM | –
3 | CCOc1ccc2ccccc2c1C(=O)N[C@@H](Cc1ccc(CS(=O)(=O)O)cc1)C(=O)N[C@@H](CCC(=O)OC(C)(C)C)C(=O)N1CCC[C@H]1C(=O)N[C@@H](Cc1csc2ccccc12)C(=O)N[C@@H](CCCC(=O)O)C(=O)NC(C)(C)C [cdc1719] (X1-[Phe(4-CH2SO3H)]E(OtBu)P[Bta][Aad]-NHtBu) | 5.96 | – | –
4 | 2-EtO-naphthyl-1-CO-Smp-Nva-MePro-Bta-Aad-NHtBu (peptide) | – | 1500 nM | –
5 | 2-EtO-naphthyl-1-CO-Smp-Nle-Pro-Bta-Aad-NHtBu (peptide) | – | 2500 nM | –
6 | 2-EtO-naphthyl-1-CO-Smp-Glu-Pro-Bta-Aad-NHtBu (peptide) | – | 2200 nM | increase in potency compared to cdc1671 (Cdc25A (human)): 2 fold
7 | 2-CH3O-1-naphthyl-CO-Smp-Glu-Glu-Bta-Aad-NHtBu (peptide) | – | 5000 nM | –
8 | CCC[C@H](NC(=O)[C@H](Cc1ccc(CS(=O)(=O)O)cc1)NC(=O)c1c(OCC)ccc2ccccc12)C(=O)N1CCC[C@@]1(C)C(=O)N[C@@H](Cc1csc2ccccc12)C(=O)N[C@@H](CCCC(=O)O)C(=O)NC(C)(C)C [cdc1749] (X1-[Phe(4-CH2SO3H)][Nva][αMeP][Bta][Aad]-NHtBu) | 5.82 | – | –
9 | CCCC[C@H](NC(=O)[C@H](Cc1ccc(CS(=O)(=O)O)cc1)NC(=O)c1c(OCC)ccc2ccccc12)C(=O)N1CCC[C@H]1C(=O)N[C@@H](Cc1csc2ccccc12)C(=O)N[C@@H](CCCC(=O)O)C(=O)NC(C)(C)C [cdc1748] (X1-[Phe(4-CH2SO3H)][Nle]P[Bta][Aad]-NHtBu) | 5.60 | – | –
10 | COc1ccc2ccccc2c1C(=O)N[C@@H](Cc1ccc(CS(=O)(=O)O)cc1)C(=O)N[C@@H](CCC(=O)O)C(=O)N[C@@H](CCC(=O)O)C(=O)N[C@@H](Cc1csc2ccccc12)C(=O)N[C@@H](CCCC(=O)O)C(=O)NC(C)(C)C [cdc1671, 2-CH3O-1-naphthyl-CO—Smp—Glu—Glu—Bta—Aad—NHtBu] (X2-[Phe(4-CH2SO3H)]EE[Bta][Aad]-NHtBu) | – | – | pIC50 (Cdc25A; inhibits Cdc25A, read-out: IC50): 5.30
